Measurements from US20080139484A1, “1(Beta-D-Glycopyranosyl)-3-Substituted Nitrogenous Heterocyclic Compound, Medicinal Composition Containing the Same, and Medicinal Use Thereof” (KISSEI PHARMACEUTICAL CO., LTD., priority 2004, published 2008).

Experiments:
human SGLT2 = target: T1, human SGLT2 (Homo sapiens, UniProt P31639); assay: Inhibition of methyl-α-D-glucopyranoside (α-MG) uptake in COS-7 cells expressing human SGLT2; assay type: cell-based; conditions: COS-7 cells expressing human SGLT2, 1 mM α-MG, 1 hour incubation at 37° C.
T1 construct: expressed in transfected cells; host or cells: COS-7 cells, transient lipofection (Lipofectamine-2000) of pcDNA3.1(-) vector
T1 sequence (P31639 1-672): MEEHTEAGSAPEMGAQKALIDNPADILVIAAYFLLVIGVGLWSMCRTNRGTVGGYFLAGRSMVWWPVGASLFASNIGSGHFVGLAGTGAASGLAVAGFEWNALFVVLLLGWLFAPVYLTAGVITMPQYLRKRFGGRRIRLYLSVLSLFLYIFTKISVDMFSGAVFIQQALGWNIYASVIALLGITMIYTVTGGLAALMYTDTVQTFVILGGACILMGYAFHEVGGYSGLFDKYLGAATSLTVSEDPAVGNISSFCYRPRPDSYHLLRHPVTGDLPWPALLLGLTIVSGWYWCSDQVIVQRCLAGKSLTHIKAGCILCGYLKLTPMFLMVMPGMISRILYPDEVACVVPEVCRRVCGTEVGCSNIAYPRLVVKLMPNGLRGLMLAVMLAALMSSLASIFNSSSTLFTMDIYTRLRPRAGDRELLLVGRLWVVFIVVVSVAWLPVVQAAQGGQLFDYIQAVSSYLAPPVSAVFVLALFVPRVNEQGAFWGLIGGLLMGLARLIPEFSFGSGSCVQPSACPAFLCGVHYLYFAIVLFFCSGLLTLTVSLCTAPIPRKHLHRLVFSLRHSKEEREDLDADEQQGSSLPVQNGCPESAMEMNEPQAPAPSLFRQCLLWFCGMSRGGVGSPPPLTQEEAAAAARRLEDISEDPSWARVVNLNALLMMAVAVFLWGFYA
Protocol: (§1) Assay for Inhibitory Effects on Human SGLT Activity
(§2) The cDNA library was prepared for PCR amplification by reverse transcription from total RNA deprived from human kidney (Ori gene) using oligo-dT as a primer. Using this cDNA library as a template, the DNA fragment coding 2 to 2039 bp of human SGLT2 (ACCESSION: M95549, M95299), which was reported by R. G. Wells et al., was amplified by PCR method and inserted into the multi-cloning site of pcDNA3.1(−) (Invitrogen). The DNA sequence inserted was perfectly matched to the previously reported sequence.
(§3) The vector expressing human SGLT1 or SGLT2 was transfected into COS-7 cells by lipofection method (Lipofectamine-2000: Invitrogen). First, COS-7 cells were plated 5×10^4 cells/100 μL/well on 96-wells plate and incubated at 37° C. for 2 hours. In addition, per 50 μL medium, 0.3 μg of human SGLT1 or SGLT2 expression vector was mixed with 0.5 μL of Lipofectamine-2000 and the complex solution was prepared. Fifty μL/well of this complex solution was added to COS-7 cells, previously described, and the plate was mixed gently and was used for uptake assay after 2 days culture.
(§4) A mixture of non-labeled (Sigma) and ^14C-labeled α-MG (Amersham Pharmacia Biotech) was added to the uptake buffer (pH 7.4; containing 140 mM sodium chloride, 2 mM potassium chloride, 1 mM calcium chloride, 1 mM magnesium chloride, 10 mM 2-[4-(2-hydroxyethyl)-1-piperazinyl]ethane sulfonic acid and 5 mM tris(hydroxymethyl)aminomethane) at the final concentration of 1 mM. A test compound was dissolved in dimethyl sulfoxide, and then appropriately diluted with distilled water. The test compound solution was added to the uptake buffer containing 1 mM α-MG, and designated as a measurement buffer. For the control group, the measurement buffer without any test compound was prepared. For measuring the basal uptake, a basal uptake measurement buffer, which contains 140 mM chorine chloride instead of sodium chloride, was prepared. After removing the culture medium of cells expressing human SGLT1 or human SGLT2, 180 μL of the pre-treatment buffer (the basal uptake buffer without α-MG) was added to each well and incubated at 37° C. for 10 minutes. After repeating the same treatment, the pre-treatment buffer was removed, and then 75 μL per well of the measurement buffer or the basal uptake buffer was added and the cells were incubated at 37° C. After 1 hour incubation, the measurement buffer was removed and the cells were washed twice with 180 μL per well of the washing buffer (the basal uptake buffer containing 10 mM non-labeled α-MG). The cells were solubilized by 75 μL per well of 0.2 mol/L sodium hydroxide, and then the cell lysates were transferred into PicoPlates (Packard). One hundred fifty μL of Microscint-40 (Packard) was added to the wells and mixed. Radioactivity was measured by means of micro-scintillation counter TopCount (Packard). One hundred % was set to the difference between the uptake in the control group and the basal uptake, and the uptake of methyl α-D-glucopyranoside at each drug concentration was calculated. The drug concentration, at which 50% uptake of methyl α-D-glucopyranoside was inhibited (IC50 value), was calculated using logit plot. The blanks in the Table are untested.

[1] = Test Example 3: effect on urinary glucose excretion; assay type: in vivo; conditions: overnight fasted male SD rats, 9 weeks of age, 1 mg/kg intravenously (2 mL/kg), urine collected for 24 hours
Protocol: As experimental animals, overnight fasted SD rats (CHARLES RIVER LABORATORIES JAPAN. Inc., Crj:CD(SD)IGS, male, 9 weeks of age, 300-330 g) were used.
Example 346 compound of 2.90 mg was dissolved by adding 29.0 μL of dimethyl sulfoxide and 2320 μL of polyethylene glycol 400. And then, the solution was mixed with 3450 μL of saline. This 0.5 mg/mL solution was used for administration.
Rats were fasted for overnight. The body weights of rats were measured and urinary glucose excretions were calculated as with the Test Example 2 except for intravenously injection to the tail veins of rats at the dose of 2 mL/kg (1 mg/kg as test compound).

[2] = Test Example 2: effect on urinary glucose excretion; assay type: in vivo; conditions: overnight fasted male SD rats, 7 weeks of age, 1 mg/kg intravenously (3 mL/kg), urine collected for 24 hours
Protocol: As experimental animals, overnight fasted SD rats (CHARLES RIVER LABORATORIES JAPAN. Inc., Crj:CD(SD(IGS), male, 7 weeks of age, 200-230 g) were used.
Example 10 compound of 2.12 mg was dissolved by adding 636 μL of ethanol and 2544 μL of polyethylene glycol 400. And then the solution was mixed with 3180 μL of saline and sonicated. Example 12 compound of 2.18 mg was dissolved by adding 654 μL of ethanol and 2616 μL of polyethylene glycol 400. And then the solution was mixed with 3270 μL of saline and sonicated. These test compound solutions of 0.33 mg/mL were used for administration.
The body weights of rats were measured and the solution of the test compound was intravenously injected to the tail vein of rats at the dose of 3 mL/kg (1 mg/kg as test compound). Collection of urine was performed for 24 hours after the administration. […]
Frozen samples were thawed and mixed well. According to need, a part of samples was diluted with distilled water and the glucose concentration of these samples was measured with a kit for laboratory test: Glucose CII-Test WAKO (Wako Pure Chemical Industries, Ltd.).
The amounts of urinary glucose excretion per 200 g of body weight were calculated from glucose concentration of urinary samples, dilution factor, urinary volume and body weight using the following equation. […]

human SGLT1 = target: T2, human SGLT1 (Homo sapiens, UniProt P13866); assay: Inhibition of methyl-α-D-glucopyranoside (α-MG) uptake in COS-7 cells expressing human SGLT1; assay type: cell-based; conditions: COS-7 cells expressing human SGLT1, 1 mM α-MG, 1 hour incubation at 37° C.
T2 construct: expressed in transfected cells; host or cells: COS-7 cells, transient lipofection (Lipofectamine-2000) of pcDNA3.1(-) vector
T2 sequence (P13866 1-664): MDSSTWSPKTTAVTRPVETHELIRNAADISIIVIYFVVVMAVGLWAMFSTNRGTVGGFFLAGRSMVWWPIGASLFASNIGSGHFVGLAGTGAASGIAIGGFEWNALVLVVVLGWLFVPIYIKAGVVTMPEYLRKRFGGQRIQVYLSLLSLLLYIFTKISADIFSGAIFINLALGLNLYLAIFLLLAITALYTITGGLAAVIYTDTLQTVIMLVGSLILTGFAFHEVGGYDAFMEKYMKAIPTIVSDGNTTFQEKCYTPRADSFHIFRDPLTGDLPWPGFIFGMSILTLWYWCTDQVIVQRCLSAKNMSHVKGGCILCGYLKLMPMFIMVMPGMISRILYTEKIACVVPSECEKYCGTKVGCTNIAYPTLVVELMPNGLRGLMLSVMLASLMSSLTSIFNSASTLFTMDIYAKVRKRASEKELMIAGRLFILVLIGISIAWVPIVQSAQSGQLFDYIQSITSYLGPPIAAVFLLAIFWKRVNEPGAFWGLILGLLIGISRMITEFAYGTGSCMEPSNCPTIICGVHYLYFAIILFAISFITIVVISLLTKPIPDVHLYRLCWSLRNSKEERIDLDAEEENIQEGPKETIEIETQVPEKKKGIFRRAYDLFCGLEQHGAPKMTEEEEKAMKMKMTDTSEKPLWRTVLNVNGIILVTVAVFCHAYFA
Protocol: as §1
as §2, with “small intestine” for “kidney”, “1” for “2”, “2005” for “2039”, “SGLT1” for “SGLT2”, “M24847),” for “M95549, M95299),”, “Hediger” for “R. G. Wells”
as §3
as §4, with “After 1 hour incubation, the measurement buffer was removed and the cells were washed twice with 180 μL per well of the washing buffer (the basal uptake buffer containing 10 mM non-labeled α-MG). The cells were solubilized by 75 μL per well of 0.2 mol/L sodium hydroxide, and then the cell lysates were transferred into PicoPlates (Packard). One hundred fifty μL of Microscint-40 (Packard) was added to the wells and mixed.” left out, “The drug concentration, at which 50% uptake of methyl α-D-glucopyranoside was inhibited (IC50 value), was calculated using logit plot. The blanks in the Table are untested.” left out

[3] = Test Example 4: inhibitory effects on blood glucose level increase, liquid meal tolerance test in diabetic rats; assay type: in vivo; conditions: streptozotocin diabetic rats, 2 mg/kg orally, liquid meal load, mean ± S.E.
Protocol: Rats, aged 8 weeks old, were injected streptozotocin (45 mg/kg) intravenously from tail vain. After 1 week, rats were fasted overnight and then glucose tolerance test (2 g/kg) was performed.
After overnight fasted, the diabetic rats were or ally administered a test compound (2 mg/kg), which was dissolved in distilled water, in the drug-treating group, or distilled water alone in a control group. Immediately after the compound administration, 3 mL/body of liquid meal (No. 038, Control diet, assorted with dextrin and maltose; Oriental Yeast Co., Ltd., prepared for 323 g/L) was loaded or ally. The blood was collected from tail artery immediately before and after administration with the time course, and treated with heparin immediately. The blood was centrifuged, and the plasma was collected and quantified the plasma glucose concentration by glucose oxidase method. The values in the Table are presented as the mean ±S.E.

Structure (SMILES)	IC50 (human SGLT2) [nM]	IC50 (human SGLT1) [nM]	further results
COc1ccc(Sc2cn([C@@H]3O[C@H](CO)[C@@H](O)[C@H](O)[C@H]3O)c3cc(C)ccc23)cc1 [Example 346, 1-(β-D-Glucopyranosyl)-3-{(4-methoxyphenyl)sulfany}-6-methyl-1H-indole]	0.4		Amount of urinary excretion of glucose in 24 hours [1]: 33.12 mg/200 g body weight
CCc1ccc(Cc2cn([C@@H]3O[C@H](CO)[C@@H](O)[C@H](O)[C@H]3O)c3ccccc23)cc1 [Example 10]	0.5		Amount of urinary excretion of glucose in 24 hours [2]: 11.2 mg/200 g body weight
Cc1cccc2c1c(Cc1ccc(CCCC(=O)NC(C)(C)C(=O)N3CCNCC3)cc1)cn2[C@@H]1O[C@H](CO)[C@@H](O)[C@H](O)[C@H]1O [Example 329, 1-(β-D-Glucopyranosyl)-3-(4-[3-{1-(piperazin-1-yl-carbonyl)-1-(methyl)ethylcarbamoyl}propyl]phenyl)methyl-4-methyl-1H-indole]		41	
Cc1cccc2c1c(Cc1ccc(OCCCNCCC(N)=O)cc1)cn2[C@@H]1O[C@H](CO)[C@@H](O)[C@H](O)[C@H]1O [Example 318, 3-[(4-{3-[2-(Carbamoyl)ethylamino]propoxy}phenyl)methyl]-1-(β-D-glucopyranosyl)-4-methyl-1H-indole]		122	
COc1ccc(Cc2cn([C@@H]3O[C@H](CO)[C@@H](O)[C@H](O)[C@H]3O)c3cc(C)ccc23)cc1 [Example 12, 1-(β-D-glucopyranosyl)-3-(4-methoxybenzyl)-6-methyl-1H-indole]	0.9	3200	Amount of urinary excretion of glucose in 24 hours [2]: 111.8 mg/200 g body weight
COc1ccc(Cc2cn([C@@H]3O[C@H](CO)[C@@H](O)[C@H](O)[C@H]3O)c3ccccc23)c(F)c1 [Example 15]	11		
CCOC(=O)[C@H](CO)NC(=O)CCCc1ccc(Cc2cn([C@@H]3O[C@H](CO)[C@@H](O)[C@H](O)[C@H]3O)c3cccc(C)c23)cc1 [Example 320]			Plasma glucose concentration 0.5 h ([3]; 0.5 hour after administration): 230 ± 14 mg/dL; Plasma glucose concentration 1 h ([3]; 1 hour after administration): 312 ± 15 mg/dL; Plasma glucose concentration 0 h ([3]; pretreatment (0 h)): 133 ± 10 mg/dL
COc1ccc(Cc2cn([C@@H]3O[C@H](CO)[C@@H](O)[C@H](O)[C@H]3O)c3cccc(C)c23)cc1 [Example 8]	0.6	10	
